Test results from patent publication US20120010196A1, “METHODS OF TREATING NEURODEGENERATIVE DISORDERS AND DISEASES” (priority 2010, published 2012).

What was measured:
[1] = system: cortical neurons cultured from wild-type mice; test: Immunoblotting analysis of various proteins in cultured cortical neurons (U18666A-induced changes); format: cell-based
Procedure: (§1) Neuronal cultures. Cortical and hippocampal neurons were prepared from npc1+/+ and npc1−/− embryos at embryonic day 18 (E18); time-pregnant wild-type BALB/c or npc1+/− mice were obtained either from Charles River Laboratories (San Diego, Calif.) or from our breeding colony respectively. Neurons were cultured in NeuroBasal (GIBCO, Carlsbad, Calif.) with 10% bovine serum albumin (BSA), 2% B27, and 1% glutamine for three to four days before being used.
(§2) Treatment. For primary cultured neurons, chemicals (U18666A and inhibitors of various enzymes) were first dissolved in 10% DMSO before being diluted in cultured medium; final DMSO concentration was lower than 0.01%. For in vivo treatment, hydroxyfasudil monohydrochloride (Sigma) was dissolved in double-distilled H2O and injected subcutaneously at 10 mg/kg, twice a day from postnatal day 7 to day 28.
Immunoprecipitation and immunoblotting procedures. For immunoprecipitation, cultured cortical neurons were lysed in lysis buffer [0.05 M Tris base, 0.9% NaCl, pH 7.6, and 0.5% Triton X-100 plus Protease Inhibitors Cocktail (1:100; EMD Biosciences) and phosphatase inhibitor cocktails (1:500; Sigma)]. Lysates were centrifuged at 16,000×g for 30 min at 4° C. Supernatant were then cleared with a mixture of protein A/Gagarose beads (each 50%) for 1 h at 4 uC, and after a brief spin, pellets were discarded. A small portion of the supernatants was used as input. The reminder of the supernatant was immunoprecipitated overnight with control IgG or Tau1 antibodies. Immunoprecipitates were captured by incubation with protein A/G-agarose beads for 3 h at 4° C. After several washes, the beads were resuspended in 2×SDS sample buffer [4% sodium dodecyl sulfate (SDS), 100 mM Tris-HCl (pH 6.8), 10% b-mercaptoethanol, 20% glycerol and 0.2% bromophenol blue] and boiled for 10 min. The resulting proteins were separated by SDS-PAGE, and transferred to polyvinylidene difluoride membranes for immunoblotting using previously described protocols.
Because the p-p53Δ and p-p53 bands were very close in immunoblots and the former was the predominant band, p-p53Δ levels were used as an index of p-p53 degradation. Immunoprecipitation was used to determine whether p-p53 truncation affected its association with the microtubule-associated protein tau, a protein that is abundantly and exclusively expressed in axons. p53 labeled by either anti-p-p53 or anti-p53 antibodies was immunoprecipitated by Tau1 antibodies (FIG. 5B).
Increased levels of p-p53Δ and p-Mdm2 were quantified using the ImageJ program (National Institutes of Health, Bethesda, Md.). The quantified levels are contained in Table 1 below.

[2] = system: axons and growth cones of hippocampal neurons from wild-type mice; test: Immunofluorescence quantification of protein levels in axons and growth cones of wild-type hippocampal neurons; format: cell-based
Procedure: as §1, §2
(§3) Immunofluorescent staining. Hippocampal neurons were fixed with 4% paraformaldehyde in phosphate buffer (PB; pH 7.4) for 15 min. After washing with 1× phosphate buffer saline (PBS), cells were permeabilized with 0.05% Triton X-100 in 1×PBS for 15 min, and incubated with blocking buffer (3% BSA, 0.02% Triton X-100 in 1×PBS) for 15 min before being probed with primary antibodies. The following primary antibodies were used: anti-E6AP (1:1000), anti-phospho-p53 (1:250), anti-phospho-4EBP1 (1:1000), antiphospho-Mdm2 antibody (1:250), anti-phospho-p38 antibody (1:250), anti-RhoA antibody (1:1500). All primary antibodies were diluted in blocking buffer and incubated at 4° C. for 18 h. After six washes (6×10 min) with 1×PBS at room temperature, cells were incubated with secondary antibodies, Alexa488-anti-rabbit (1:500) or Alexa594-anti-mouse (1:500); both antibodies were diluted in blocking buffer and incubated at room temperature for one h. Cells were then washed with 1×PBS (6×10 min) and sealed with mounting medium (Vectashield; Vector Laboratories, Inc., Burlingame, Calif.) containing 49,69-diamidino-2-phenylindole (DAPI) to stain nuclei. Immunofluorescent signal was detected with a Nikon confocal microscope (Nikon TE 2000U with DEclipse C1 system; Melville, N.Y.).
(§4) Quantification of growth cone morphology and immunoreactivity. Confocal images were taken using the 60× oil-immersion objective. About 20-30 images were randomly selected from each culture dish (20 mm in diameter); at least four to six dishes from three to six independent culture preparations/experiments were used for each experimental group. Within an experiment, cultures used for different experimental groups and designed for comparison were stained simultaneously and imaged with the same acquisition parameters. Quantification was done blindly by multiple researchers. Growth cones with less than 1 filopodium were considered collapsed; 100 growth cones were-quantified for each experimental group. Image J software was used to quantify immunoreactivity intensity of p-p53 and RhoA in axons and growth cones; the “total integrated density” was used instead of “average intensity”. Briefly, individual growth cones were outlined manually and the total integrated density was measured using Image J software. For quantification of immunoreactivity in axons, a 50 μm fragment of axons from the neck of growth cones towards the cell body was selected and integrated density measured.

[3] = system: hippocampal neurons cultured from npc1−/− mice; test: p-p53 immunoreactivity in axons and growth cones of npc1−/− hippocampal neurons; format: cell-based; settings: 10 μM Y-27632 for 18 h at DIV3
Procedure: as §1
(§5) Treatment. For primary cultured neurons, chemicals (U18666A and inhibitors of various enzymes) were first dissolved in 10% DMSO before being diluted in cultured medium; final DMSO concentration was lower than 0.01%. […]
(§6) Immunofluorescent staining. […] Immunofluorescent signal was detected with a Nikon confocal microscope (Nikon TE 2000U with DEclipse C1 system; Melville, N.Y.).
(§7) Quantification of growth cone morphology and immunoreactivity. […] Quantification was done blindly by multiple researchers. Growth cones with less than 1 filopodium were considered collapsed; 100 growth cones were-quantified for each experimental group. Image J software was used to quantify immunoreactivity intensity of p-p53 and RhoA in axons and growth cones; the “total integrated density” was used instead of “average intensity”. Briefly, individual growth cones were outlined manually and the total integrated density was measured using Image J software. […]

[4] = system: hippocampal neurons cultured from wild-type mice; test: Quantification of growth cone collapse in cultured neurons from wild-type mice (U18666A-induced); format: cell-based; settings: for growth cone collapse: n=100 growth cones; for growth cone collapse (share of neurons): 1 μM U18666A for 18 h
Procedure: as §1, §2, §3, §4

[5] = system: hippocampal neurons cultured from npc1−/− mice; test: Growth cone collapse in hippocampal neurons cultured from npc1−/− mice; format: cell-based; settings: 10 μM Y-27632 for 18 h at DIV3; vehicle 80±2%; n=100 growth cones
Procedure: as §1, §5, §6, §7

hippocampal neurons = test: Filipin staining of cholesterol in cultured hippocampal neurons; format: cell-based, mice; settings: 1 μM U18666A for 18 h
Procedure: Filipin staining. […] After immunostaining with anti-E6-AP and anti-p-p53 antibodies and corresponding secondary antibodies conjugated with either Alexa Fluor H 594 or Alexa Fluor H 488, neurons were washed with 1×PBS and incubated in the dark with […] filipin in 1×PBS for 2 h at room temperature. Neuronal cultures were then washed again with 1×PBS before being examined with confocal microscopy.
Because axonal growth cone collapse in hippocampal neurons from npc1−/− mice was associated with decreased levels of p-p53, over-expression of wild-type p53 was tested to determine if it could reverse growth cone collapse. In this set of experiments, the amphiphilic amine and cholesterol transport inhibitor, U18666A, was used to induce a NPC-like phenotype in hippocampal neurons cultured from wild-type mice. U18666A has been used to induce NPC-like phenotype in various cultured cells, including neurons. Treatment with 1 μM U18666A for 18 h induced growth cone collapse in about 80% of hippocampal neurons prepared from wild-type mice and transfected with an EGFP-vector or a vector containing p53 with the R175H mutation (p53-R175H), a conformational mutation that is frequently found in tumor cells that lack p53 function (FIGS. 1D and E). […]

[6] = DIV4 cortical neurons from wild-type mice, 5 μM U18666A, inhibitor pre-treatment 1 μM, DMSO = 100, n = 3-6
[7] = immunohistochemical analysis, mean±SEM, n=25-40, Mdm2 inhibitor 1 μM

C[C@@H](N)[C@H]1CC[C@H](C(=O)Nc2ccncc2)CC1.Cl.Cl [Y-27632, trans-4-[(1R)-1-Aminoethyl]-N-4-pyridinylcyclohexanecarboxamide dihydrochloride]
effect on U18666A-induced increase in levels of phosphorylated LIM kinase (immunoblot) ([1]; pre-treatment with Y-27632): significantly reduced
effect on U18666A-induced increase in p38 and Mdm2 phosphorylation, protein ubiquitination and RhoA levels (immunoblot) ([1]; pre-treatment with Y-27632): did not block
effect on U18666A-induced p-p53 truncation (immunoblot) ([1]; pre-treatment with Y-27632): significantly reduced
effect on U18666A-induced decrease in p-p53 immunoreactivity in axons and growth cones ([2]; Y-27632 10 μM 2 h pretreatment, 5 μM U18666A 2 min): reversed
effect on U18666A-induced reduction of "mutant" p53 in axons and growth cones ([2]; pre-incubation with 10 μM Y27632): blocked
p-p53 immunoreactivity in axons and growth cones [3]: increased
growth cone collapse ([4]; Y-27632 10 μM pre-incubation for 2 h, then 5 μM U18666A for 2 min, DIV4): 41±1%
growth cone collapse [5]: 48±1%

CCN(CC)CCO[C@H]1CC[C@@]2(C)C(=CC[C@@H]3[C@@H]2CC[C@]2(C)C(=O)CC[C@@H]32)C1 [U18666A]
p-p53 levels (immunoblot) ([1]; 5 μM U18666A for 2 min, DIV4 wild-type cortical neurons): rapid decrease
RhoA level (immunoblot) [1, 6]: 418
Ubiquitin level (immunoblot) [1, 6]: 435
p-4EBP1 level (immunoblot) [1, 6]: 389
p-LIMK level (immunoblot) [1, 6]: 411
p-Mdm2 level (immunoblot) [1, 6]: 549
p-p38 level (immunoblot) [1, 6]: 493
p-p53Δ level (immunoblot) [1, 6]: 775
t-p38 level (immunoblot) [1, 6]: 107
t-p53 level (immunoblot) [1, 6]: 94
levels of "mutant" p53 in axons and growth cones ([2]; 5 μM U18666A for 2 min, DIV4): markedly reduced
p-4EBP1 levels in axons and growth cones ([2]; 5 μM U18666A for two min): increased
levels of p-p38 and p-Mdm2 in axons and growth cones ([2]; 5 μM U18666A for two min vs vehicle-treated controls): increased
RhoA levels in axons, percentage of control vehicle-treated neurons [2, 7]: 640±56%
RhoA levels in growth cones, percentage of control vehicle-treated neurons [2, 7]: 257±37%
growth cone collapse (share of neurons) ([4]; neurons transfected with EGFP-vector or p53-R175H): about 80%
growth cone collapse (share of neurons) ([4]; neurons transfected with wild-type p53): 20%
growth cone collapse ([4]; 5 μM U18666A for 2 min, DIV4, no inhibitor): 72±2%
filipin fluorescence intensity (cholesterol) in axons and collapsed growth cones (hippocampal neurons): marked decrease
